BigSolDB 2.1

Q: For `O=c1cc[nH]c(=O)[nH]1`, which solubility (mole fraction) (in ethanol, 283.15 K) is on record?
A: 7.7e-05

Q: And the solubility (mole fraction) (in ethanol, 288.15 K)?
A: 9.1e-05

Q: What about the solubility (mole fraction) (in ethanol, 293.15 K) of the same compound?
A: 0.000113

Q: What about the solubility (mole fraction) (in ethanol, 298.15 K) of the same compound?
A: 0.000135

Q: What about the solubility (mole fraction) (in ethanol, 303.15 K) of the same compound?
A: 0.000166

Q: And the solubility (mole fraction) (in ethanol, 308.15 K)?
A: 0.000212

Q: And the solubility (mole fraction) (in ethanol, 313.15 K)?
A: 0.000248

Q: What about the solubility (mole fraction) (in ethanol, 318.15 K) of the same compound?
A: 0.000296

Q: What about the solubility (mole fraction) (in isopropanol, 283.15 K) of the same compound?
A: 6.6e-05

Q: And the solubility (mole fraction) (in isopropanol, 288.15 K)?
A: 7.6e-05

Q: What about the solubility (mole fraction) (in isopropanol, 293.15 K) of the same compound?
A: 0.000105

Q: What about the solubility (mole fraction) (in isopropanol, 298.15 K) of the same compound?
A: 0.00014

Q: What about the solubility (mole fraction) (in isopropanol, 303.15 K) of the same compound?
A: 0.000169

Q: What about the solubility (mole fraction) (in isopropanol, 308.15 K) of the same compound?
A: 0.000216

Q: And the solubility (mole fraction) (in isopropanol, 313.15 K)?
A: 0.000245

Q: And the solubility (mole fraction) (in isopropanol, 318.15 K)?
A: 0.000281

Q: What about the solubility (mole fraction) (in methanol, 283.15 K) of the same compound?
A: 0.000152

Q: What about the solubility (mole fraction) (in methanol, 288.15 K) of the same compound?
A: 0.000166

Q: And the solubility (mole fraction) (in methanol, 293.15 K)?
A: 0.000206

Q: And the solubility (mole fraction) (in methanol, 298.15 K)?
A: 0.000253

Q: And the solubility (mole fraction) (in methanol, 303.15 K)?
A: 0.000307

Q: What about the solubility (mole fraction) (in methanol, 308.15 K) of the same compound?
A: 0.000362

Q: What about the solubility (mole fraction) (in methanol, 313.15 K) of the same compound?
A: 0.000414

Q: And the solubility (mole fraction) (in methanol, 318.15 K)?
A: 0.000519

Q: And the solubility (mole fraction) (in water, 283.15 K)?
A: 0.000166

Q: And the solubility (mole fraction) (in water, 288.15 K)?
A: 0.000209

Q: And the solubility (mole fraction) (in water, 293.15 K)?
A: 0.000264

Q: What about the solubility (mole fraction) (in water, 298.15 K) of the same compound?
A: 0.000332

Q: And the solubility (mole fraction) (in water, 303.15 K)?
A: 0.00042

Q: And the solubility (mole fraction) (in water, 308.15 K)?
A: 0.000513

Q: And the solubility (mole fraction) (in water, 313.15 K)?
A: 0.000613

Q: And the solubility (mole fraction) (in water, 318.15 K)?
A: 0.000738
